Assay results as given in PubChem BioAssay (NCI).
Several values for one entry are separate records, joined by “and”; a condition that tells them apart may be missing. Equal entries are not always repeated.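 1) Cells in 96-well plates. 2) Compound, 48 h, 5 concentrations. 3) Linear interpolation between surrounding doses. 4) Unreached endpoint = highest concentration. Abbreviation: GI50, concentration required for 50% inhibition of growth. TGI is the concentration that stops growth completely.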

Tests used:
Test in all cases: NCI tumour cell line growth inhibition, 48 h
NCI-H23 lung = tested on: NCI-H23 lung
NCI-H460 lung = tested on: NCI-H460 lung
NCI-H522 lung = tested on: NCI-H522 lung
NCI/ADR-RES ovarian = tested on: NCI/ADR-RES ovarian
OVCAR-3 ovarian = tested on: OVCAR-3 ovarian
OVCAR-4 ovarian = tested on: OVCAR-4 ovarian
OVCAR-5 ovarian = tested on: OVCAR-5 ovarian
OVCAR-8 ovarian = tested on: OVCAR-8 ovarian
PC-3 prostate = tested on: PC-3 prostate
RPMI-8226 leukemia = tested on: RPMI-8226 leukemia
RXF 393 renal = tested on: RXF 393 renal
SF-268 CNS = tested on: SF-268 CNS
SF-295 CNS = tested on: SF-295 CNS
SF-539 CNS = tested on: SF-539 CNS
SK-MEL-2 melanoma = tested on: SK-MEL-2 melanoma
SK-MEL-28 melanoma = tested on: SK-MEL-28 melanoma
SK-MEL-5 melanoma = tested on: SK-MEL-5 melanoma
SK-OV-3 ovarian = tested on: SK-OV-3 ovarian
SN12C renal = tested on: SN12C renal
SNB-19 CNS = tested on: SNB-19 CNS
SNB-75 CNS = tested on: SNB-75 CNS
SR leukemia = tested on: SR leukemia
SW-620 colon = tested on: SW-620 colon
T-47D breast = tested on: T-47D breast
TK-10 renal = tested on: TK-10 renal
U251 CNS = tested on: U251 CNS
UACC-257 melanoma = tested on: UACC-257 melanoma
UACC-62 melanoma = tested on: UACC-62 melanoma
UO-31 renal = tested on: UO-31 renal

## C[C@@]1(C(=O)Nc2ccc(F)nc2)CCCN1c1nc(Nc2cc(C3CC3)[nH]n2)c2cccn2n1
NCI-H23 lung
  GI50: 0.391 µM and 0.794 µM
  TGI: > 4.93 µM and 19.8 µM
NCI-H460 lung
  GI50: 0.184 µM and 0.288 µM
  TGI: > 3.07 µM and 14.3 µM
NCI-H522 lung
  GI50: 1.19 µM and 4 µM
  TGI: > 2.54 µM and 20.9 µM
NCI/ADR-RES ovarian
  GI50: 3.99 µM and 4.99 µM
  TGI: > 10 µM and 25.9 µM
OVCAR-3 ovarian
  GI50: 8.73 µM
  TGI: > 3.4 µM and 22.3 µM
OVCAR-4 ovarian
  GI50: 1.34 µM and 3.2 µM
  TGI: > 3.38 µM and 26.7 µM
OVCAR-5 ovarian
  GI50: 0.225 µM and 0.455 µM
  TGI: > 2.77 µM and 15.5 µM
OVCAR-8 ovarian
  GI50: 1.77 µM and 5.99 µM
  TGI: > 10 µM and 21.1 µM
PC-3 prostate
  GI50: 0.989 µM and 1.41 µM
  TGI: > 7.62 µM and 23.5 µM
RPMI-8226 leukemia
  GI50: 7.86 µM
  TGI: > 2.89 µM and 42.1 µM
RXF 393 renal
  GI50: 0.396 µM and 1.44 µM
  TGI: 1.26 µM and 7.11 µM
SF-268 CNS
  GI50: 0.631 µM and 2.56 µM
  TGI: > 2.57 µM and 15.6 µM
SF-295 CNS
  GI50: 0.472 µM and 0.841 µM
  TGI: 3.2 µM and 6.78 µM
SF-539 CNS
  GI50: 0.82 µM and 2.47 µM
  TGI: > 2.45 µM and 16.3 µM
SK-MEL-2 melanoma
  GI50: 0.631 µM and 2.64 µM
  TGI: > 2.29 µM and 18.8 µM
SK-MEL-28 melanoma
  GI50: 11.8 µM
  TGI: > 3.92 µM and 25.7 µM
SK-MEL-5 melanoma
  GI50: 3.82 µM
  TGI: > 2.15 µM and 17.5 µM
SK-OV-3 ovarian
  GI50: 0.95 µM and 6.12 µM
  TGI: > 4.91 µM and 22.2 µM
SN12C renal
  GI50: 0.877 µM and 3.55 µM
  TGI: > 6.62 µM and 18.3 µM
SNB-19 CNS
  GI50: 12.3 µM
  TGI: > 10 µM and 37.3 µM
SNB-75 CNS
  GI50: 0.138 µM and 1.24 µM
SR leukemia
  TGI: > 2.53 µM and 15.7 µM
SW-620 colon
  GI50: 0.214 µM and 0.342 µM
  TGI: > 10 µM and 23.4 µM
T-47D breast
  GI50: 1.2 µM and 7.47 µM
  TGI: > 3.53 µM and 27.2 µM
TK-10 renal
  GI50: 1.57 µM and 0.593 µM
  TGI: > 10 µM and 8.38 µM
U251 CNS
  GI50: 1.74 µM and 4.92 µM
  TGI: > 7.39 µM and 20.6 µM
UACC-257 melanoma
  GI50: 0.211 µM and 0.12 µM
  TGI: > 4.46 µM and 16.5 µM
UACC-62 melanoma
  GI50: 0.388 µM and 2.1 µM
  TGI: > 2.12 µM and 18.7 µM
UO-31 renal
  GI50: 0.458 µM and 2.78 µM
  TGI: > 4.38 µM and 16 µM
